Test system: PGE2 production in 3T3 cells
Test: PGE2 inhibition in 3T3 cells stimulated with calcium ionophore (Cayman PGE2 monoclonal EIA kit)
Format: cell-based
Conditions: Mus musculus, NIH3T3, at 0.488 μg/mL, relative to control cells not exposed, read-out: highest PGE2 inhibition observed
Protocol: As is known in the art, prostaglandin E2 (PGE2) activity can be used to measure anti-inflammatory activity of a substance. PGE2 inhibitory activity can be measured by the ability of test samples to inhibit PGE2 production in 3T3 cells when stimulated with calcium ionophore. As understood in the art, aspirin and ibuprofen may be included in the assay as a positive control. The in vitro production of PGE2 from 3T3 cells was measured using the Cayman Chemical Prostaglandin E2 monoclonal EIA (Enzyme Immuno Assay) kit. The cells were exposed to extracts derived from dunder and molasses and stimulated with calcium ionophore. The cell supernatants were then assayed for PGE2 production. The cell cytotoxicity of the samples was tested against 3T3 cells to confirm that the observed PGE2 inhibition was not due to cell cytotoxicity. Aspirin and ibuprofen were used as positive controls.

With `CC(C)Cc1ccc(C(C)C(=O)O)cc1` (stereo not shown) [ibuprofen] the inhibition at 0.488 µg/mL was 42.1%.

— US10335403B2, “Niacin formulation” (Zeenar Enterprises Pty Ltd., priority 2013, dated 2019)
